US11713335B2, “Aminocoumarin compounds and methods of their use” (President and Fellows of Harvard College, priority 2018, dated 2023)
Converted amounts (≈) assume the structure as drawn. Where two headings read alike, the source gives them in different places.

What was measured:
Format in all cases: cell-based
S. aureus RN4220 = test: Minimal inhibitory concentration, S. aureus RN4220; details: read-out: MIC (μM) S. aureus RN4220
Method: (§1) General Procedure for Determination of Minimal Inhibitory Concentrations
(§2) Overnight cultures (5 mL) of bacterial strains were grown in LB media or TSA media (for S. aureus) at 37° C. and with shaking at 220 rpm until saturation. The overnight culture was diluted serially 1:100 (50 μL in 5 mL sterile media) and then 1:100 (250 μL in 25 mL sterile media). The 25 mL of diluted culture was then dispensed to a sterile 96 well plate (Corning #3370). 198 μL of culture were dispensed into row A and 100 μL of this culture were dispensed into rows B-H. Aminocoumarin compound (DMSO stock) were added to the first row and then the row was mixed by pipetting. 100 μL of culture from row A were transferred to row B and the serial dilution continued until the final 100 μL from row H were discarded. The plate was incubated without shaking in a 37° C. for 16 hours and then read by visible light spectrophotometer (Molecular Devices) at 600 nm. The minimal inhibitory concentration (MIC) was determined as the lowest concentration of compound concentration that inhibited the growth of bacteria.
(§3) The compounds of the invention were assessed for activities against the pathogens S. aureus RN4220 and MW2, E. cloacae 13047, A. baumannii 19606, K. pneumoniae 700721, E. coli MC4100, 25922. All activities are reported in micromolar (uM) and are 16 hour minimal inhibitory concentrations at 37° C. The assay is detailed in Example 11 and is titled “General Procedure for Determination of Minimal Inhibitory Concentrations.”

E. coli 25922 = test: Minimal inhibitory concentration, E. coli 25922; details: read-out: MIC (μM) E. coli 25922
Method: as §1, §2, §3

K. pneumoniae 700721 = test: Minimal inhibitory concentration, K. pneumoniae 700721; details: read-out: MIC (μM) K. pneumoniae 700721
Method: as §1, §2, §3

E. coli MC4100 = test: Minimal inhibitory concentration, E. coli MC4100; details: read-out: MIC (μM) E. coli MC4100 ara+
Method: as §1, §2, §3

A. baumannii 19606 = test: Minimal inhibitory concentration, A. baumannii 19606; details: read-out: MIC (μM) A. baumannii 19606
Method: as §1, §2, §3

E. cloacae 13047 = test: Minimal inhibitory concentration, E. cloacae 13047; details: read-out: MIC (μM) E. cloacae 13047
Method: as §1, §2, §3

S. aureus MW2 = test: Minimal inhibitory concentration, S. aureus MW2; details: read-out: MIC (μM) S. aureus MW2 (MRSA)
Method: as §1, §2, §3

[1] = Staphylococcus aureus, RN4220, 16 h, 16 hour minimal inhibitory concentration at 37° C.
[2] = Escherichia coli, 25922, 16 h, 16 hour minimal inhibitory concentration at 37° C.
[3] = Klebsiella pneumoniae, 700721, 16 hour minimal inhibitory concentration at 37° C.
[4] = Escherichia coli, MC4100, 16 h, 16 hour minimal inhibitory concentration at 37° C.
[5] = Acinetobacter baumannii, 19606, 16 h, 16 hour minimal inhibitory concentration at 37° C.
[6] = Enterobacter cloacae, 13047, 16 hour minimal inhibitory concentration at 37° C.
[7] = Staphylococcus aureus, MRSA, 16 h, 16 hour minimal inhibitory concentration at 37° C.
[8] = Staphylococcus aureus, MRSA, 16 h
[9] = 16 hour minimal inhibitory concentration at 37° C.

Row | Structure (SMILES) | MIC (S. aureus RN4220; [1]) | MIC (E. coli 25922; [2]) | MIC (K. pneumoniae 700721; [3]) | MIC (E. coli MC4100; [4]) | MIC (A. baumannii 19606; [5]) | MIC (E. cloacae 13047; [6]) | MIC (S. aureus MW2; [7]) | other results
1 | CO[C@@H]1[C@@H](OC(=O)c2ccc(C)n2-c2ccccc2)[C@@H](O)[C@H](Oc2ccc3c(O)c(NC(=O)c4ccc(O)c(CC=C(C)C)c4)c(=O)oc3c2C)OC1(C)C [Compound 210] | 33 µM (≈ 24.8 µg/mL) | > 200 µM | > 100 µM | > 200 µM | > 50 µM | > 100 µM | 33 µM (≈ 24.8 µg/mL) | –
2 | C#Cc1cccc(C(=O)Nc2c(O)c3ccc(O[C@@H]4OC(C)(C)[C@H](OC)[C@@H](OC(N)=O)[C@H]4O)c(C)c3oc2=O)c1 [Compound 229] | 90 µM (≈ 49.7 µg/mL) | > 200 µM | > 100 µM | > 200 µM | > 50 µM | > 100 µM | 90 µM (≈ 49.7 µg/mL) | –
3 | CO[C@@H]1[C@H]2OP(=O)(c3ccccc3)O[C@H]2[C@H](Oc2ccc3c(O)c(NC(=O)c4ccc(O)c(CC=C(C)C)c4)c(=O)oc3c2C)OC1(C)C (stereo partly drawn) [Compound 208] | > 100 µM | > 200 µM | > 100 µM | > 200 µM | > 50 µM | > 100 µM | > 100 µM | –
4 | CO[C@@H]1[C@@H](OC(=O)c2ccc(C)[nH]2)[C@@H](O)[C@H](Oc2ccc3c(O)c(NC(=O)c4ccc(O)c(CC=C(C)C)c4)c(=O)oc3c2C)OC1(C)C [Compound 112] | – | – | – | – | – | – | – | MIC (S. aureus RN4220; Staphylococcus aureus, RN4220, 16 h): < 0.01 µM; MIC (E. coli 25922; Escherichia coli, 25922, 16 h): 18.5 µM (≈ 12.5 µg/mL); MIC (K. pneumoniae 700721; Klebsiella pneumoniae, 700721, 16 h): 37 µM (≈ 25 µg/mL); MIC (E. coli MC4100; Escherichia coli, MC4100, 16 h): 74 µM (≈ 50.1 µg/mL); MIC (A. baumannii 19606; Acinetobacter baumannii, 19606, 16 h): < 0.11 µM; MIC (E. cloacae 13047; Enterobacter cloacae, 13047, 16 h): > 100 µM; MIC (S. aureus MW2; [8]): < 0.01 µM
5 | CO[C@@H]1[C@@H](OC(N)=O)[C@@H](O)[C@H](Oc2ccc3c(O)c(NC(=O)c4ccc(Br)cc4)c(=O)oc3c2C)OC1(C)C [Compound 204] | 82 µM (≈ 49.8 µg/mL) | > 200 µM | > 100 µM | > 200 µM | > 50 µM | > 100 µM | 82 µM (≈ 49.8 µg/mL) | –
6 | CO[C@@H]1[C@@H](OC(N)=O)[C@@H](O)[C@H](Oc2ccc3c(O)c(NC(=O)OC(C)(C)C)c(=O)oc3c2C)OC1(C)C [Compound 209] | > 100 µM | > 200 µM | > 100 µM | > 200 µM | > 50 µM | > 100 µM | > 100 µM | –
7 | CO[C@@H]1[C@@H](OC(N)=O)[C@@H](O)[C@H](Oc2ccc3c(O)c(NC(=O)c4ccc(I)cc4)c(=O)oc3c2C)OC1(C)C [Compound 225] | 38 µM (≈ 24.9 µg/mL) | > 200 µM | > 100 µM | – | > 50 µM | > 100 µM | 38 µM (≈ 24.9 µg/mL) | –
8 | CO[C@@H]1[C@@H](OC(N)=O)[C@@H](O)[C@H](Oc2ccc3c(O)c(NC(=O)c4ccc(N=[N+]=[N-])cc4)c(=O)oc3c2C)OC1(C)C [Compound 224] | 88 µM (≈ 50.1 µg/mL) | > 200 µM | > 100 µM | – | > 50 µM | > 100 µM | > 100 µM | –
9 | CO[C@@H]1[C@@H](OC(N)=O)[C@@H](O)[C@H](Oc2ccc3c(O)c(NC(=O)c4ccc(Br)c(Oc5ccccc5)c4)c(=O)oc3c2C)OC1(C)C [Compound 258] | 5 µM (≈ 3.5 µg/mL) | 18 µM (≈ 12.6 µg/mL) | 20 µM (≈ 14 µg/mL) | 4.5 µM (≈ 3.15 µg/mL) | > 50 µM | > 100 µM | 4.5 µM (≈ 3.15 µg/mL) | –
10 | CO[C@@H]1[C@@H](OC(N)=O)[C@@H](O)[C@H](Oc2ccc3c(O)c(NC(=O)c4cccc(Oc5ccc(F)cc5)c4)c(=O)oc3c2C)OC1(C)C [Compound 249] | 20 µM (≈ 12.8 µg/mL) | < 1.56 µM | 20 µM (≈ 12.8 µg/mL) | 5 µM (≈ 3.19 µg/mL) | > 50 µM | > 100 µM | 20 µM (≈ 12.8 µg/mL) | –
11 | CO[C@@H]1[C@@H](OC(N)=O)[C@@H](O)[C@H](Oc2ccc3c(OCCCO)c(NC(=O)c4ccc(O)c(CC=C(C)C)c4)c(=O)oc3c2C)OC1(C)C [Compound 216] | 19 µM (≈ 12.7 µg/mL) | > 200 µM | > 100 µM | > 200 µM | > 50 µM | > 100 µM | 19 µM (≈ 12.7 µg/mL) | –
12 | CO[C@@H]1[C@@H](OC(N)=O)[C@@H](O)[C@H](Oc2ccc3c(O)c(NC(=O)c4cc(Oc5ccccc5)ccn4)c(=O)oc3c2C)OC1(C)C [Compound 239] | 20 µM (≈ 12.4 µg/mL) | > 200 µM | > 100 µM | > 200 µM | > 50 µM | > 100 µM | 20 µM (≈ 12.4 µg/mL) | –
13 | CO[C@@H]1[C@@H](OC(N)=O)[C@@H](O)[C@H](Oc2ccc3c(O)c(NC(=O)c4cccc(Oc5cccc(C(F)(F)F)c5)c4)c(=O)oc3c2C)OC1(C)C [Compound 241] | 9.08 µM (≈ 6.25 µg/mL) | 145 µM (≈ 99.8 µg/mL) | > 100 µM | 155 µM (≈ 107 µg/mL) | > 50 µM | > 100 µM | 9.08 µM (≈ 6.25 µg/mL) | –
14 | CCCNC(=O)O[C@H]1[C@H](Oc2ccc3c(O)c(NC(=O)c4ccc(O)c(CC=C(C)C)c4)c(=O)oc3c2C)OC(C)(C)[C@H](OC)[C@H]1O [Compound 109] | – | – | – | – | – | – | – | MIC (S. aureus RN4220; [9]): 1.53 µM (≈ 1 µg/mL); MIC (E. coli 25922; [9]): >200 µM; MIC (K. pneumoniae 700721; [9]): >100 µM; MIC (E. coli MC4100; [9]): >200 µM; MIC (A. baumannii 19606; [9]): 10 µM (≈ 6.55 µg/mL); MIC (E. cloacae 13047; [9]): >100 µM; MIC (S. aureus MW2; [9]): 1.53 µM (≈ 1 µg/mL)
15 | CO[C@@H]1[C@@H](OC(N)=O)[C@@H](O)[C@H](Oc2ccc3c(O)c(NC(=O)c4ccc([N+](=O)[O-])c(Oc5ccccc5)c4)c(=O)oc3c2C)OC1(C)C [Compound 253] | 38 µM (≈ 25.3 µg/mL) | 75 µM (≈ 49.9 µg/mL) | > 100 µM | 75 µM (≈ 49.9 µg/mL) | > 50 µM | > 100 µM | 38 µM (≈ 25.3 µg/mL) | –
16 | CO[C@@H]1[C@@H](O)[C@@H](OC(=O)NC2CCCCC2)[C@H](Oc2ccc3c(O)c(NC(=O)c4ccc(O)c(CC=C(C)C)c4)c(=O)oc3c2C)OC1(C)C [Compound 110] | – | – | – | – | – | – | – | MIC (S. aureus RN4220; [9]): >100 µM; MIC (E. coli 25922; [9]): >200 µM; MIC (K. pneumoniae 700721; [9]): >100 µM; MIC (E. coli MC4100; [9]): >200 µM; MIC (A. baumannii 19606; [9]): >50 µM; MIC (E. cloacae 13047; [9]): >100 µM; MIC (S. aureus MW2; [9]): >100 µM
17 | CO[C@@H]1[C@@H](OC(N)=O)[C@@H](O)[C@H](Oc2ccc3c(O)c(NC(=O)C45CC6CC(CC(F)(C6)C4)C5)c(=O)oc3c2C)OC1(C)C [Compound 100] | – | – | – | – | – | – | – | MIC (S. aureus RN4220; [9]): 83 µM (≈ 50.2 µg/mL); MIC (E. coli 25922; [9]): >200 µM; MIC (K. pneumoniae 700721; [9]): >100 µM; MIC (E. coli MC4100; [9]): >200 µM; MIC (A. baumannii 19606; [9]): >50 µM; MIC (E. cloacae 13047; [9]): >100 µM; MIC (S. aureus MW2; [9]): 41 µM (≈ 24.8 µg/mL)
18 | CO[C@@H]1[C@@H](OC(N)=O)[C@@H](O)[C@H](Oc2ccc3c(OCCO)c(NC(=O)c4ccc(O)c(CC=C(C)C)c4)c(=O)oc3c2C)OC1(C)C [Compound 215] | 38 µM (≈ 25 µg/mL) | – | > 100 µM | – | – | > 100 µM | – | MIC (E. coli 25922; Escherichia coli, 25922, 16 hour minimal inhibitory concentration at 37° C.): > 200 µM; MIC (E. coli MC4100; Escherichia coli, MC4100, 16 hour minimal inhibitory concentration at 37° C.): > 200 µM; MIC (A. baumannii 19606; Acinetobacter baumannii, 19606, 16 hour minimal inhibitory concentration at 37° C.): > 50 µM; MIC (S. aureus MW2; [8]): 19 µM (≈ 12.5 µg/mL)
19 | CO[C@@H]1[C@@H](OC(N)=O)[C@@H](O)[C@H](Oc2ccc3c(O)c(NC(=O)c4cccc(Oc5ccccc5C)c4)c(=O)oc3c2C)OC1(C)C [Compound 220] | 10 µM (≈ 6.35 µg/mL) | 160 µM (≈ 102 µg/mL) | > 100 µM | 158 µM (≈ 100 µg/mL) | > 50 µM | > 100 µM | 10 µM (≈ 6.35 µg/mL) | –
20 | CO[C@@H]1[C@@H](OC(N)=O)[C@@H](O)[C@H](Oc2ccc3c(OCc4ccccc4)c(NC(=O)c4ccc(O)c(CC=C(C)C)c4)c(=O)oc3c2C)OC1(C)C [Compound 211] | > 100 µM | > 200 µM | > 100 µM | > 200 µM | > 50 µM | > 100 µM | > 100 µM | –
